Test results reported in patent publication US20210023074A1, “TREATMENT OF DEMYELINATING DISEASES” (Victoria Link Ltd., priority 2018, published 2021).
Where two headings read alike, the source gives them in different places.

Experiments:
[1] = tested on: experimental autoimmune encephalomyelitis (EAE) mice; experiment: EAE model of MS, daily disease score (paralysis), treatment from day 17; type: in vivo, C57BL/6 mice
Procedure: (§1) Experimental detail: Female, C57BL/6 mice were immunized subcutaneously (s.c.) in the hind flanks to induce EAE using myelin oligodendrocyte glycoprotein (MOG) peptide 35-55 (50 μg/mouse) in complete Freund's adjuvant containing heat-killed Mycobacterium tuberculosis (500 μg/mouse). In addition, pertussis toxin (200 ng/mouse) was administered intraperitoneally (i.p.) on days 0 and 2. Mice were weighed and scored daily. On day 17 (dotted line), mice were started on daily treatment with vehicle only (Veh; 10% tween and 10% DMSO in saline) or Nalmefene (NaIM) at 0.1, 0.03, or 0.01 mg/kg by i.p. injection. Nalmefene was supplied by University of Kansas, Synthetic Chemical Biology Core Laboratory, 97.6% pure by HPLC). Treatment allocation was blinded. The disease was scored from 0-5 with 0 (normal), 1 (partial tail paralysis), 2 (full tail paralysis), 3 (one hind limb paralysed or severe disability in both hind limbs), 4 (complete paralysis of both hind limbs) and 5 (moribund). This model is a standard disease model for multiple sclerosis and is described in White et al. 2018. Scientific Reports. 8:259 which is incorporated herein by reference in its entirety. Shown are results combined from 2 independent experiments. ****p<0.0001 by one-way ANOVA with Dunnett's multiple comparison test.
Experimental detail: EAE was induced in female C57BL/6 mice as described in Example 1. On day 17, mice were started on daily treatment with vehicle only (Veh) or nalmefene (NaIM) at 0.1 or 0.03 mg/kg by i.p. injection. The area under the curve (AUC) was calculated for each mouse based upon the daily disease score and represents the total disability experienced. Shown are results from 1 representative experiment. *p<0.05 by one-way ANOVA with Dunnett's multiple comparison test.
Experimental detail: EAE was induced in female C57BL/6 mice as described in Example 1. On day 17 (dotted line), mice were started on daily treatment with vehicle only (Veh) or nalmefene (NaIM) at 0.1 or 0.03 mg/kg by i.p. injection. Shown are mice that were not sick at the time of treatment but developed disease later. *p<0.05 by two-way ANOVA with Holm-Sidak's multiple comparison test.

[2] = tested on: cuprizone-induced demyelination in mice; experiment: Cuprizone demyelination disease model, TEM of corpus callosum, g-ratio; type: in vivo, C57BL/6 mice; conditions: 0.3% cuprizone diet, 0.01 mg/kg i.p. daily from day 28, day 70
Procedure: Experimental details: A demyelinating disease state was induced in female C57BL/6 mice (8-14 weeks old and between 17-23 grams in weight). The mice were fed cuprizone-containing chow (0.3% (w/w) cuprizone) or chow only (normal controls) for 35 days, at which point they were switched back to standard chow. At day 28, mice were started on daily treatment with vehicle only (DMSO: Tween 80: Saline) or nalmefene at 0.01 mg/kg by i.p. injection. On day 70, mice were culled and brain tissue were processed for transmission electron microscopy (TEM). Mice were weighed daily and the % weight change calculated.
Experimental details: A demyelinating disease state was induced in female C57BL/6 mice as described in FIG. 19A. FIGS. 19A-C show representative Transmission Electron Microscopy (TEM) images of the corpus callosum of mice (A) fed normal diet and (B-C) fed 0.3% cuprizone to induce demyelination. Following the time course described in FIG. 19A, cuprizone fed mice were administered (B) vehicle only treatment, and (C) nalmefene (0.01 mg/kg/i.p.) and then sacrificed on experimental day 70. Scale bars represent 2000 nm.
Mice fed a normal diet have a mean g-ratio of 0.78±0.09 in contrast to mice fed 0.3% cuprizone that have a significant increase in g-ratio of 0.84±0.1 corresponding to the decreased myelin thickness (####p<0.0001). […] Data represents measurements of 5 TEM images of the corpus callosum from 2-3 mice per treatment group and g-ratios calculated (a measure of myelin thickness) using Image J software. Analysis was performed by individuals blinded to treatment groups. (n=200-400 axons per treatment group). All data analysed by one-way ANOVA followed by Turkeys multiple comparisons test.

[3] = tested on: myelin in spinal cord of EAE mice; experiment: TEM of spinal cord sections from EAE mice (myelination); type: in vivo, C57BL/6 mice; conditions: 0.03 mg/kg i.p. daily from day 17, day 45
Procedure: Experimental detail: EAE was induced in female C57BL/6 mice as described in Example 1. On day 17, mice were started on daily treatment with vehicle only or nalmefene at 0.03 mg/kg by i.p. injection. On day 45 after immunization to induce EAE, mice were culled and spinal cords were processed for transmission electron microscopy (TEM).

spinal cord of EAE mice = experiment: Luxol fast blue histology of spinal cord, % demyelination in EAE mice; type: in vivo, C57BL/6 mice; conditions: 0.01 mg/kg i.p. daily from disease onset, chronic phase
Procedure: Experimental detail: EAE was induced in female C57BL/6 mice as described in Example 1. On the day of disease onset (score >1), mice were started on daily treatment with vehicle only or nalmefene at 0.01 mg/kg by i.p. injection. During the chronic phase (>24 days post treatment initiation), mice were culled, perfused with 4% paraformaldehyde and spinal cords were processed for histology. […] Shown are the means and standard error of individual values from vehicle (n=7) or 0.01 (n=3) nalmefene-treated EAE mice. *p<0.05 by one-way ANOVA with Holm-Sidak's multiple comparison test.

EAE-induced weight loss = type: in vivo, C57BL/6 mice; conditions: 0.1 or 0.03 mg/kg i.p. daily from day 17
Procedure: as §1, with “Shown are results combined from 2 independent experiments. ****p<0.0001 by one-way ANOVA with Dunnett's multiple comparison test.” left out
Experimental detail: EAE was induced in female C57BL/6 mice as described in Example 1. Mice were weighed daily and the % change in body weight calculated. […]

[4] = tested on: Alcohol consumption (Wistar and AA rat); conditions: cited from earlier work
[5] = treated prior to disease onset, 0.1 or 0.03 mg/kg i.p. daily from day 17
[6] = Alcohol consumption (AA rat), PO

With `C=C1CC[C@@]2(O)[C@H]3Cc4ccc(O)c5c4[C@@]2(CCN3CC2CC2)[C@H]1O5` [nalmefene, (4R,4aS,7aS,12bS)-3-(cyclopropylmethyl)-7-methylidene-2,4,5,6,7a,13-hexahydro-1H-4,12-methanobenzofuro[3,2-e]isoquinoline-4a,9-diol] the “disease score (recovery from paralysis)” value ([1]; 0.1, 0.03 or 0.01 mg/kg i.p. daily from day 17, 45 days) was “reduction of disease in all nalmefene-treated groups indicates recovery from paralysis”, the “reduction in disease (total disability, AUC of daily disease score)” value ([1]; 0.1 and 0.03 mg/kg i.p. daily from day 17, by day 45) was 70% and the “total disability (AUC of disease score)” value ([1]; 0.1 or 0.03 mg/kg i.p. daily from day 17, by day 45) was “significantly lower total disability”. The onset of disease [1, 5] was “did not alter the onset of disease”, the “recovery from paralysis (disease score)” value [1, 5] was “rapid recovery from paralysis” and the “axonal-myelin structure and remyelination (TEM)” value [2] was “more normal axonal-myelin structure and organisation, and increased remyelination”. For the same compound, the “g-ratio (measure of myelin thickness), corpus callosum” value [2] was 0.791±0.01, the “g-ratio compared to vehicle” value [2] was “significantly lower g-ratio compared to vehicle only treated” and the “myelination of nerve axons in spinal cord (TEM)” value [3] was “nerve axons appear healthy and well myelinated”. For the same compound, the “% demyelination of spinal cord (luxol fast blue)” value (spinal cord of EAE mice) was “significant reduction demyelination”, the “% change in body weight” value (EAE-induced weight loss) was “recover from EAE-induced weight loss” and the ED50 [4, 6] was 16.1 μg/kq. For the same compound, the “Inhibition (%)” value [4, 6] was 23%, the “Inhibition (%)” value ([4]; Alcohol consumption (Wistar and AA rat), SC, 4 days) was 73% and the “Inhibition (%)” value ([4]; Alcohol consumption (Wistar and AA rat), SC, 26 days) was 67%. For the same compound, the “Inhibition (%)” value ([4]; Alcohol consumption (Wistar rat), SC, 6 days) was 75% and the “In vivo efficacy ED50” value ([4]; SC administration, rat) was 0.2 to 0.4 mg/kg.
